Common to all, as to format: cell-based
Experiment [1] concerns K-562 human leukemia cells. Nature of the experiment: MTS cell viability assay, K-562 human leukemia cells. The note with it: K562, K-562, 4 h compound incubation, MTS, read-out: IC50 Values, Cancerous Cells, Leukemia K-562. (In general: Formazan colour is commonly taken as a measure of viable cells.)
Experiment [2] has as its system DU-145 human prostate carcinoma cells. Nature of the experiment: MTS cell viability assay, DU-145 human prostate carcinoma cells. The note with it: DU-145, 4 h compound incubation, MTS, read-out: IC50 Values, Cancerous Cells, Prostate DU-145.
The test system of experiment [3] is DLD-1 human colon carcinoma cells. Nature of the experiment: MTS cell viability assay, DLD-1 human colon carcinoma cells. The note with it: DLD-1, 4 h compound incubation, MTS, read-out: IC50 Values, Cancerous Cells, Colon DLD-1.
Experiment [4] relates to NCM-460 normal colon epithelial cells. Nature of the experiment: MTS cell viability assay, NCM-460 normal colon epithelial cells. To be noted: for IC50: Homo sapiens, NCM460, NCM-460, 4 h compound incubation, MTS, read-out: IC50 Values, Normal Cells, Colon NCM-460; for Fold Selectivity (NCM-460/DLD1): ratio of IC50 NCM-460 / DLD1.
The subject of experiment [5] is PACA-2 human pancreatic carcinoma cells. Kind of experiment: MTS cell viability assay, PACA-2 human pancreatic carcinoma cells. To be noted: PACA-2, 4 h compound incubation, MTS, read-out: IC50 Values, Cancerous Cells, Pancreas PACA-2.
Experiment [6] deals with A549 human lung carcinoma cells. Kind of experiment: MTS cell viability assay, A549 human lung carcinoma cells. To be noted: A549, 4 h compound incubation, MTS, read-out: IC50 Values, Cancerous Cells, Lung A549.

In general, IC50 refers to the concentration at which inhibition is half-maximal. With `O=C1C(=O)c2ccccc2C2=C1SCC1(CCN(C3C=CCCC3)CC1)O2` (centres unmarked) [Compound 135, 1′-cyclohex-2-en-1-ylspiro[naphtho[1,2-b][1,4]oxathiine-2,4′-piperidine]-5,6-dione], the IC50 in experiment [1] was determined as 4.02 µM; in experiment [2] it was 5.07 µM; in experiment [3] it was 4.89 µM; in experiment [4], 8.35 µM; in experiment [5], 7.42 µM; in experiment [6] it was 19.2 µM. The “Fold Selectivity (NCM-460/DLD1)” value in experiment [4] was 1.7.
`O=C1C(=O)c2ccccc2C2=C1SCC1(CCN(CC3CCCCC3)CC1)O2` [Compound 136, 1′-(cyclohexylmethyl)spiro[naphtho[1,2-b][1,4]oxathiine-2,4′-piperidine]-5,6-dione]: the IC50 was found to be 4.34 µM in experiment [1]; 4.32 µM in experiment [2]; 2.95 µM in experiment [3]; 8.7 µM in experiment [4]; 4.13 µM in experiment [5]; 9.6 µM in experiment [6]. Further, the “Fold Selectivity (NCM-460/DLD1)” value in experiment [4] turned out to be 2.9.
For the molecule `CC(c1ccccc1)N1CCC2(CC1)CSC1=C(O2)c2ccccc2C(=O)C1=O` (centres unmarked) [Compound 137, 1′-(1-phenylethyl)spiro[naphtho[12-b][1,4]oxathiine-2,4′-piperidine]-5,6-dione], the IC50 in experiment [1] came to 4.25 µM; in experiment [2], 4.32 µM; in experiment [3] it was 4.08 µM; in experiment [4], 10 µM; in experiment [5] it was 4.12 µM; in experiment [6] it was 8.27 µM. In experiment [4], the “Fold Selectivity (NCM-460/DLD1)” value was 2.5.
Consider `O=C1C(=O)c2ccccc2C2=C1SCC1(CCN(C3CCCC3)CC1)O2` [Compound 138, 1′-cyclopentylspiro[naphtho[1,2-b][1,4]oxathiine-2,4′-piperidine]-5,6-dione], for which the IC50 in experiment [1] was determined as 1.43 µM; in experiment [2], 2.52 µM; in experiment [3] it was 1.43 µM; in experiment [4], 3.55 µM; in experiment [5], 1.48 µM; in experiment [6], 7.8 µM. Moreover, the “Fold Selectivity (NCM-460/DLD1)” value in experiment [4] is 2.5.
For the molecule `O=C1C(=O)c2ccccc2C2=C1SCC1(CCN(C/C=C/c3ccccc3)CC1)O2` [Compound 139, 1′-[(2E)-3-phenylprop-2-en-1-yl]spiro[naphtho[1.2-b][1,4]oxathiine-2,4′-piperidine]-5,6-dione], the IC50 in experiment [1] worked out at 4.8 µM; in experiment [2] it was 4.42 µM; in experiment [3], 4.32 µM; in experiment [4] it was 19.5 µM; in experiment [5], 4.17 µM; in experiment [6], 27.8 µM. Further, the “Fold Selectivity (NCM-460/DLD1)” value in experiment [4] is 4.5.
On to `O=C1C(=O)c2ccccc2C2=C1SCC1(CCN(CCOc3ccccc3)CC1)O2` [Compound 140, 1′-(2-phenoxyethyl)spiro[naphtho[1,2-b][1,4]oxathiine-2,4′-piperidine]-5,6-dione], for which the IC50 in experiment [1] was 4.26 µM; in experiment [2], 4.2 µM; in experiment [3] it was 3.37 µM; in experiment [4] it was 12.2 µM; in experiment [5], 3.93 µM; in experiment [6] it was 21.5 µM. Also, in experiment [4], the “Fold Selectivity (NCM-460/DLD1)” value was 3.6.
With `O=C1C(=O)c2ccccc2C2=C1SCC1(CCN(CCCC(F)(F)F)CC1)O2` [Compound 141, 1′-(4,4,4-trifluorobutyl)spiro[naphtho[1,2-b][1,4]oxathiine-2,4′-piperidine]-5,6-dione], the IC50 was determined as 2.39 µM in experiment [1]; 4.01 µM in experiment [2]; 1.95 µM in experiment [3]; 8.13 µM in experiment [4]; 2.44 µM in experiment [5]; 5.01 µM in experiment [6]. Besides, in experiment [4], the “Fold Selectivity (NCM-460/DLD1)” value turned out to be 4.2.
With `O=C1C(=O)c2ccccc2C2=C1SCC1(CCN(Cc3ccc(F)c(Cl)c3)CC1)O2` [Compound 142, 1′-(3-chloro-4-fluorobenzyl)spiro[naphtho[1,2-b][1,4]oxathiine-2,4′-piperidine]-5,6-dione], the IC50 in experiment [1] is 8.72 µM; in experiment [2] it was 6.93 µM; in experiment [3], 4.25 µM; in experiment [4] it was 15.1 µM; in experiment [5] it was 10.5 µM; in experiment [6], 44.2 µM. Moreover, the “Fold Selectivity (NCM-460/DLD1)” value in experiment [4] was determined as 3.6.
With `C=CCCN1CCC2(CC1)CSC1=C(O2)c2ccccc2C(=O)C1=O` [Compound 143, 1′-but-3-en-1-ylspiro[naphtho[1,2-b][1,4]oxathiine-2,4′-piperidine]-5,6-dione], the IC50 in experiment [1] amounted to 3.29 µM; in experiment [2], 4.26 µM; in experiment [3], 2.14 µM; in experiment [4], 6.39 µM; in experiment [5], 2.5 µM; in experiment [6] it was 7.39 µM. The “Fold Selectivity (NCM-460/DLD1)” value in experiment [4] is listed as 3.0.
Consider `O=C1C(=O)c2ccccc2C2=C1SCC1(CCN(CCCOc3ccccc3)CC1)O2` [Compound 144, 1′-(3-phenoxypropyl)spiro[naphtho[1,2-b][1,4]oxathiine-2,4′-piperidine]-5,6-dione], for which the IC50 amounted to 4.32 µM in experiment [1]; 4.91 µM in experiment [2]; 2.17 µM in experiment [3]; 9.9 µM in experiment [4]; 2.82 µM in experiment [5]; 8.19 µM in experiment [6]. For the same molecule, the “Fold Selectivity (NCM-460/DLD1)” value in experiment [4] worked out at 4.6.
In the case of `O=C1C(=O)c2ccccc2C2=C1SCC1(CCN(CCOc3ccc(Cl)cc3)CC1)O2` [Compound 145, 1′-[2-(4-chlorophenoxy)ethyl]spiro[naphtho[1,2-b][1,4]oxathiine-2,4′-piperidine]-5,6-dione], the IC50 in experiment [1] worked out at 7.87 µM; in experiment [2], 4.03 µM; in experiment [3], 3.8 µM; in experiment [4], 21 µM; in experiment [5], 2.74 µM; in experiment [6], 5.55 µM. Besides, the “Fold Selectivity (NCM-460/DLD1)” value in experiment [4] is recorded as 5.5.
On to `Cc1ccc(CN2CCC3(CC2)CSC2=C(O3)c3ccccc3C(=O)C2=O)cc1F` [Compound 146, 1′-(3-fluoro-4-methylbenzyl)spiro[naphtho[1,2-b][1,4]oxathiine-2,4′-piperidine]-5,6-dione], for which the IC50 stood at 12.1 µM in experiment [1]; 5.77 µM in experiment [2]; 4.53 µM in experiment [3]; 26.4 µM in experiment [4]; 4.1 µM in experiment [5]; 38.2 µM in experiment [6]. In experiment [4], the “Fold Selectivity (NCM-460/DLD1)” value is recorded as 5.8.
As to `CC(C)(C)c1ccc(OCC(O)CN2CCC3(CC2)CSC2=C(O3)c3ccccc3C(=O)C2=O)cc1` (centres unmarked) [Compound 157, 1′-[3-(4-tert-butylphenoxy)-2-hydroxypropyl]spiro[naphtho[1,2-b][1,4]oxathiine-2,4′-piperidine]-5,6-dione], the IC50 in experiment [1] was 7.6 µM; in experiment [2] it was 2.26 µM; in experiment [3] it was 3.63 µM; in experiment [4] it was 28.2 µM; in experiment [5] it was 2.08 µM; in experiment [6] it was 8.03 µM. The “Fold Selectivity (NCM-460/DLD1)” value in experiment [4] worked out at 7.8.
Regarding `O=C1C(=O)c2ccccc2C2=C1SCC1(CCN(CC(O)COc3ccccc3)CC1)O2` (centres unmarked) [Compound 158, 1′-(2-hydroxy-3-phenoxypropyl)spiro[naphtho[1,2-b][1,4]oxathiine-2,4′-piperidine]-5,6-dione], the IC50 in experiment [1] stood at 1.44 µM; in experiment [2], 1.71 µM; in experiment [3] it was 1.48 µM; in experiment [4], 4.91 µM; in experiment [5], 1.32 µM; in experiment [6] it was 5.6 µM. In addition, the “Fold Selectivity (NCM-460/DLD1)” value in experiment [4] was 3.3.

Values taken from patent US7902354B2, “Lapachone compounds and methods of use thereof” (ArQule, Inc., priority 2006, dated 2011).
